Reference: PubChem BioAssay (NCI)
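The compound was tested at five concentrations on cells cultured in 96-well plates, with a 48-hour exposure period. TGI: concentration producing complete growth inhibition.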

Experiments:
Assay in all cases: NCI anticancer screen, dose series, 48 h
[1] = system: OVCAR-8 ovarian
[2] = system: SN12C renal
[3] = system: 786-0 renal
[4] = system: SK-MEL-5 melanoma
[5] = system: MOLT-4 leukemia
[6] = system: OVCAR-3 ovarian
[7] = system: TK-10 renal
[8] = system: MDA-N
[9] = system: LOX IMVI melanoma
[10] = system: MDA-MB-435
[11] = system: HOP-92 NSCLC
[12] = system: M14 melanoma
[13] = system: NCI-H226 lung
[14] = system: HL-60(TB) leukemia
[15] = system: DU-145 prostate
[16] = system: RPMI-8226 leukemia
[17] = system: CCRF-CEM leukemia
[18] = system: SK-MEL-28 melanoma
[19] = system: U251 CNS
[20] = system: SF-295 CNS

SMILES | TGI [1] | TGI [2] | TGI [3] | TGI [4] | TGI [5] | TGI [6] | TGI [7] | TGI [8] | TGI [9] | TGI [10] | TGI [11] | TGI [12] | TGI [13] | TGI [14] | TGI [15] | TGI [16] | TGI [17] | TGI [18] | TGI [19] | TGI [20]
CC1(C)CC(=O)/C(=C/C2CCNC2=S)C(=O)N1 (configuration not stated) | > 100 µM | > 100 µM | > 100 µM | > 100 µM | > 100 µM | > 100 µM | > 100 µM | > 100 µM | > 100 µM | > 100 µM | > 100 µM | > 100 µM | > 100 µM | > 100 µM | > 100 µM | > 100 µM | > 100 µM | > 100 µM | > 100 µM | > 100 µM
COc1ccc(OC)c([N+](=O)[O-])c1-c1nc2sccn2c1/C=N/N=C(N)N | > 100 µM | > 100 µM | > 100 µM | > 100 µM | 69.5 µM | > 100 µM | > 100 µM | > 100 µM | > 100 µM | > 100 µM | > 100 µM | > 100 µM | > 100 µM | > 100 µM | > 100 µM | > 100 µM | > 100 µM | 68.3 µM | > 100 µM | > 100 µM
CCCCCCCC(=O)OC[n+]1ccc(-c2c(COC(=O)NC(C)C)c(COC(=O)NC(C)C)c3n2CCC3)cc1 | > 100 µM | > 100 µM | > 79.8 µM | > 100 µM | > 59 µM | > 100 µM | > 100 µM | > 100 µM | 54 µM | > 100 µM | 83.8 µM | > 100 µM | > 100 µM | 52.4 µM | > 59.8 µM | 66.2 µM | > 60.3 µM | > 100 µM | > 100 µM | > 100 µM
CO[C@H]1O[C@@H]2CO[C@@H](c3ccccc3)O[C@H]2[C@@H]2CC=CCC[C@]12O | > 100 µM | > 100 µM | > 100 µM | > 100 µM | 73.3 µM | > 100 µM | > 100 µM | > 100 µM | > 100 µM | > 100 µM | > 100 µM | > 100 µM | > 100 µM | 67 µM | > 100 µM | 90.1 µM | > 100 µM | > 100 µM | > 100 µM | > 100 µM
O[C@@]1(c2cccs2)c2cccc(Cl)c2[C@](O)(c2cccs2)c2cccc(Cl)c21 | > 100 µM | 34.1 µM | 32.5 µM | 34.7 µM | 56.3 µM | 37.1 µM | 99.4 µM | 36.4 µM | 33.2 µM | 35 µM | > 100 µM | 31.5 µM | 57.1 µM | 46.3 µM | 64.6 µM | 66.2 µM | > 100 µM | 37.8 µM | 33.2 µM | 31.3 µM
Nc1nc(Cl)c(N)c(NCC2(CO)CC(Cc3ccccc3)C2)n1 (configuration not stated) | > 100 µM | > 100 µM | > 100 µM | 18.5 µM | > 78.8 µM | > 100 µM | > 100 µM | > 100 µM | > 100 µM | 60 µM | > 100 µM | > 100 µM | > 100 µM | 17.3 µM | > 100 µM | > 78.8 µM | > 100 µM | > 100 µM | > 56.7 µM | > 100 µM
CC1=C(C(=O)N[C@@H](Cc2ccccc2)C(=O)O)N2C(=O)[C@@H](NC(=O)[C@@H](N)CC(C)C)[C@H]2SC1 | > 100 µM | > 100 µM | > 100 µM | > 100 µM | > 100 µM | > 100 µM | > 100 µM | > 100 µM | > 100 µM | > 100 µM | > 100 µM | > 100 µM | > 100 µM | > 100 µM | > 100 µM | > 100 µM | > 100 µM | > 100 µM | > 100 µM | > 100 µM
C#CCn1c(=O)ccn(/C(=C\C(=O)OCC)C(=O)OCC)c1=O | 5.42 µM | > 58 µM | 6.05 µM | 46.1 µM | > 27.7 µM | 16.3 µM | 3.45 µM | 35.1 µM | > 50.5 µM | 22.9 µM | 4.5 µM | 10.3 µM | 40.4 µM | > 100 µM | 31.1 µM | > 23.9 µM | > 20.9 µM | 25.7 µM | 39.8 µM | 43.3 µM
COC(=O)C1=C(OC(=O)/C(=C/c2ccc(Cl)cc2Cl)c2ccc(Cl)cc2Cl)C(C(=O)OC)[C@@]2(O)[C@@H](C(=O)OC)[C@H](C)C[C@@H]1[C@@H]2C(=O)OC (some centres not stated) | > 100 µM | > 100 µM | > 100 µM | > 100 µM | > 100 µM | > 100 µM | > 100 µM | > 100 µM | > 100 µM | > 100 µM | > 100 µM | > 100 µM | > 100 µM | > 100 µM | > 100 µM | > 100 µM | > 100 µM | > 100 µM | > 100 µM | > 100 µM
Oc1ccc(Cl)cc1-c1[nH]c(=S)nc(-c2ccccc2)c1Cl | > 100 µM | > 100 µM | > 100 µM | > 100 µM | > 100 µM | > 100 µM | > 100 µM | > 100 µM | > 100 µM | > 100 µM | > 100 µM | > 100 µM | > 100 µM | > 100 µM | > 100 µM | > 100 µM | > 100 µM | > 100 µM | 97.9 µM | > 87.8 µM
COc1ccc(/C(CCl)=C(\Nc2ccccc2)c2ccc(OC)c(OC)c2)cc1OC | > 100 µM | > 100 µM | > 100 µM | > 100 µM | > 100 µM | > 100 µM | > 100 µM | > 100 µM | > 100 µM | > 100 µM | > 100 µM | > 100 µM | > 100 µM | > 100 µM | > 100 µM | > 100 µM | > 100 µM | > 100 µM | > 100 µM | > 100 µM
OC(CC(CC(O)(C(F)(F)Cl)C(F)(F)Cl)=NNc1ccccc1)(C(F)(F)Cl)C(F)(F)Cl | > 10 µM | > 10 µM | > 10 µM | 3.45 µM | > 10 µM | 6.38 µM | 9.04 µM | 7.81 µM | 6.91 µM | > 10 µM | 5.19 µM | > 10 µM | 7.89 µM | > 10 µM | 9.08 µM | > 10 µM | > 10 µM | 8.06 µM | > 10 µM | 7.09 µM
COc1ccc(N)c(C(O)CCNC(C)=O)c1 (configuration not stated) | > 100 µM | > 100 µM | > 100 µM | > 100 µM | > 100 µM | > 100 µM | > 100 µM | > 100 µM | > 100 µM | > 100 µM | > 100 µM | > 100 µM | > 100 µM | > 100 µM | > 100 µM | > 100 µM | > 100 µM |  | > 100 µM | > 100 µM
CC1CC(C)[C@H](O)C([C@H](O)CC2CC(=O)N(C)C(=O)C2)C1 (some centres not stated) | > 100 µM | > 100 µM | > 100 µM | > 100 µM | > 100 µM | > 100 µM | > 100 µM | > 100 µM | > 100 µM | > 100 µM | > 100 µM | > 100 µM | > 100 µM | > 100 µM | > 100 µM | > 100 µM | > 100 µM | > 100 µM | > 100 µM | > 100 µM
Cc1cc(C)nc(NS(=O)(=O)c2ccc(NN=c3c4ccccc4n(C)c4ccccc34)cc2)n1 | > 100 µM | > 100 µM | > 100 µM | 62.9 µM | 79.6 µM | > 100 µM | > 100 µM | 59.6 µM | 96.7 µM | 69.1 µM | > 100 µM | > 100 µM | > 100 µM | > 100 µM | > 100 µM | > 100 µM | 77.6 µM | 67.7 µM | > 100 µM | > 100 µM
CC(=O)NC1=C(C)C(=O)c2c(nc3n2CCC3OC(=O)c2ccccc2)C1=N (configuration not stated) | 8.5 µM | 3.16 µM | 3.65 µM | 2.83 µM | 5.24 µM | 5.71 µM | 9.17 µM | 0.347 µM | 1.33 µM | 0.319 µM | 5.47 µM | 2.76 µM | 13.9 µM | 3.74 µM | 3.44 µM | 4.34 µM | 9.71 µM | 3.45 µM | 9.45 µM | 6.53 µM
COc1ccc(C2=C(Cl)c3cc(OC)c(OC)cc3C2=O)cc1OC | 31.9 µM | 32.9 µM | 10.7 µM | 31.7 µM | > 100 µM | 6.56 µM | 25.6 µM | 38.3 µM | 24.7 µM | 29.4 µM | 4 µM | 18.1 µM | > 100 µM | > 100 µM | 32.7 µM | 87.1 µM | > 100 µM |  |  | > 100 µM
COc1cc(C2S/C(=C/c3ccccc3)C(=O)N2c2cc(Cl)ccc2Cl)cc(OC)c1OC (configuration not stated) | > 100 µM | > 100 µM | 41.3 µM | > 100 µM | > 100 µM | > 100 µM | > 100 µM | > 100 µM | 36.1 µM | > 100 µM | > 100 µM | 62.4 µM | > 100 µM | > 100 µM | > 100 µM | > 100 µM | > 100 µM | > 100 µM | > 100 µM | > 100 µM
